Measurements published in ChEMBL document CHEMBL5620413, “Novel pterostilbene derivatives ameliorate heart failure by reducing oxidative stress and inflammation through regulating Nrf2/NF-κB signaling pathway” (Eur J Med Chem, 2023).
Active and inactive are the calls of the source.

Assays:
RAW264.7 [1] = assay: Antiinflammatory activity in mouse RAW264.7 cells assessed as decrease in LPS-induced iNOS expression preincubated for 1 hr followed by LPS treatment for 24 hrs by Western blot analysis; type: functional, cell-based; conditions: dose <= 10.0 µM, time 25.0 hrs
H9c2 [2] = assay: Inhibition of ROS generation in rat H9c2 cells preincubated for 1 hr followed by LPS treatment for 24 hrs by DCFH-DA dye based analysis; type: functional, cell-based; conditions: dose <= 10.0 µM, time 25.0 hrs
RAW264.7 [3] = assay: Inhibition of ROS generation in mouse RAW264.7 cells preincubated for 1 hr followed by DOX treatment for 12 hrs by DCFH-DA dye based analysis; type: functional, cell-based; conditions: dose <= 10.0 µM, time 13.0 hrs
H9c2 [4] = assay: Inhibition of ROS generation in rat H9c2 cells preincubated for 1 hr followed by DOX treatment for 12 hrs by DCFH-DA dye based analysis; type: functional, cell-based; conditions: dose <= 10.0 µM, time 13.0 hrs
RAW264.7 [5] = assay: Inhibition of ROS generation in mouse RAW264.7 cells assessed as increase in LPS-reduced Nrf2 expression upto 10 uM preincubated for 1 hr followed by LPS treatment for 24 hrs by Western blot analysis; type: functional, cell-based; conditions: time 25.0 hrs
H9c2 [6] = assay: Inhibition of ROS generation in rat H9c2 cells assessed as increase in LPS-reduced Nrf2 expression upto 10 uM preincubated for 1 hr followed by LPS treatment for 24 hrs by Western blot analysis; type: functional, cell-based; conditions: time 25.0 hrs
H9c2 [7] = assay: Inhibition of ROS generation in rat H9c2 cells assessed as increase in DOX-reduced Nrf2 expression upto 10 uM preincubated for 1 hr followed by DOX treatment for 12 hrs by Western blot analysis; type: functional, cell-based; conditions: time 13.0 hrs
RAW264.7 [8] = assay: Inhibition of ROS generation in mouse RAW264.7 cells assessed as increase in DOX-reduced SOD expression upto 10 uM preincubated for 1 hr followed by DOX treatment for 12 hrs by Western blot analysis; type: functional, cell-based; conditions: time 13.0 hrs
H9c2 [9] = assay: Inhibition of ROS generation in rat H9c2 cells assessed as increase in DOX-reduced SOD expression upto 10 uM preincubated for 1 hr followed by DOX treatment for 12 hrs by Western blot analysis; type: functional, cell-based; conditions: time 13.0 hrs
H9c2 [10] = assay: Inhibition of ROS generation in rat H9c2 cells assessed as increase in DOX-reduced CAT expression upto 10 uM preincubated for 1 hr followed by DOX treatment for 12 hrs by Western blot analysis; type: functional, cell-based; conditions: time 13.0 hrs
RAW264.7 [11] = assay: Inhibition of ROS generation in mouse RAW264.7 cells assessed as increase in DOX-reduced GPX1 expression upto 10 uM preincubated for 1 hr followed by DOX treatment for 12 hrs by Western blot analysis; type: functional, cell-based; conditions: time 13.0 hrs
H9c2 [12] = assay: Inhibition of ROS generation in rat H9c2 cells assessed as increase in DOX-reduced GPX1 expression upto 10 uM preincubated for 1 hr followed by DOX treatment for 12 hrs by Western blot analysis; type: functional, cell-based; conditions: time 13.0 hrs
RAW264.7 [13] = assay: Antiinflammatory activity against mouse RAW264.7 cells assessed as decrease in LPS-induced IL-1beta mRNA expression upto 10 uM preincubated for 1 hr followed by LPS treatment for 24 hrs by qRT-PCR analysis; type: functional, cell-based; conditions: time 25.0 hrs
RAW264.7 [14] = assay: Antiinflammatory activity against mouse RAW264.7 cells assessed as decrease in LPS-induced TNF-alpha expression upto 10 uM preincubated for 1 hr followed by LPS treatment for 24 hrs by Western blot analysis; type: functional, cell-based; conditions: time 25.0 hrs
H9c2 [15] = assay: Antiinflammatory activity against rat H9c2 cells assessed as decrease in DOX-induced IL-6 expression upto 10 uM preincubated for 1 hr followed by DOX treatment for 12 hrs by Western blot analysis; type: functional, cell-based; conditions: time 13.0 hrs
H9c2 [16] = assay: Antiinflammatory activity against rat H9c2 cells assessed as decrease in DOX-induced TNF-alpha expression upto 10 uM preincubated for 1 hr followed by DOX treatment for 12 hrs by Western blot analysis; type: functional, cell-based; conditions: time 13.0 hrs
RAW264.7 [17] = assay: Antiinflammatory activity against mouse RAW264.7 cells assessed as decrease in LPS-induced NF-kappaB phosphorylation upto 10 uM preincubated for 1 hr followed by LPS treatment for 24 hrs by Western blot analysis; type: functional, cell-based; conditions: time 25.0 hrs
RAW264.7 [18] = assay: Antiinflammatory activity against mouse RAW264.7 cells assessed as decrease in DOX-induced NF-kappaB phosphorylation upto 10 uM preincubated for 1 hr followed by DOX treatment for 12 hrs by Western blot analysis; type: functional, cell-based; conditions: time 13.0 hrs
H9c2 [19] = assay: Antiinflammatory activity against rat H9c2 cells assessed as decrease in DOX-induced NF-kappaB phosphorylation upto 10 uM preincubated for 1 hr followed by DOX treatment for 12 hrs by Western blot analysis; type: functional, cell-based; conditions: time 13.0 hrs
Mus musculus [20] = assay: Protection against cardiac dysfunction C57BL/6J mouse model assessed as increase in DOX-reduced LVFS at 7 mg/kg, ip administered daily for 4 weeks by echocardiography; type: functional, organism-based
Mus musculus [21] = assay: Protection against cardiac dysfunction C57BL/6J mouse model assessed as increase in DOX-reduced LVEF at 7 mg/kg, ip administered daily for 4 weeks by echocardiography; type: functional, organism-based
Mus musculus [22] = assay: Protection against cardiac dysfunction C57BL/6J mouse model assessed as increase in DOX-reduced heart size at 7 mg/kg, ip administered daily for 4 weeks; type: functional, organism-based
Mus musculus [23] = assay: Protection against cardiac dysfunction C57BL/6J mouse model assessed as increase in DOX-reduced ratio of heart weight to body weight at 7 mg/kg, ip administered daily for 4 weeks; type: functional, organism-based
Mus musculus [24] = assay: Protection against cardiac dysfunction C57BL/6J mouse model assessed as decrease in DOX-induced serum HBDH level at 7 mg/kg, ip administered daily for 4 weeks; type: functional, organism-based
Mus musculus [25] = assay: Protection against cardiac dysfunction C57BL/6J mouse model assessed as decrease in DOX-induced myocardial cell injury at 7 mg/kg, ip administered daily for 4 weeks by H and E staining based analysis; type: functional, organism-based
Mus musculus [26] = assay: Protection against cardiac dysfunction C57BL/6J mouse model assessed as decrease in DOX-induced accumulation of inflammatory cells at 7 mg/kg, ip administered daily for 4 weeks by H and E staining based analysis; type: functional, organism-based
Mus musculus [27] = assay: Protection against cardiac dysfunction C57BL/6J mouse model assessed as decrease in DOX-induced myocardial fibrosis at 7 mg/kg, ip administered daily for 4 weeks by Sirius Red staining based analysis; type: functional, organism-based
Mus musculus [28] = assay: Protection against cardiac dysfunction C57BL/6J mouse model assessed as decrease in DOX-induced TGF-beta1 expression at 7 mg/kg, ip administered daily for 4 weeks by Western blot analysis; type: functional, organism-based
Mus musculus [29] = assay: Inhibition of DOX-induced cardiac ROS generation in cardiac dysfunction C57BL/6J mouse model at 7 mg/kg, ip administered daily for 4 weeks by DHE staining based analysis; type: functional, organism-based
Mus musculus [30] = assay: Protection against cardiac dysfunction C57BL/6J mouse model assessed as increase in DOX-reduced cardiac SOD2 expression at 7 mg/kg, ip administered daily for 4 weeks by Western blot analysis; type: functional, organism-based
Mus musculus [31] = assay: Protection against cardiac dysfunction C57BL/6J mouse model assessed as increase in DOX-reduced cardiac CAT expression at 7 mg/kg, ip administered daily for 4 weeks by Western blot analysis; type: functional, organism-based
Mus musculus [32] = assay: Protection against cardiac dysfunction C57BL/6J mouse model assessed as increase in DOX-reduced cardiac Nrf2 expression at 7 mg/kg, ip administered daily for 4 weeks by Western blot analysis; type: functional, organism-based
Mus musculus [33] = assay: Antiinflammatory activity in cardiac dysfunction C57BL/6J mouse model assessed as decrease in DOX-induced NF-kappaB expression at 7 mg/kg, ip administered daily for 4 weeks by Western blot analysis; type: functional, organism-based

CCCCOc1ccc(/C=C/c2cc(OC)cc(OC)c2C2CC(C)=NN2C(C)=O)cc1 (stereo not drawn)
active: Activity (RAW264.7 [1]) Dose-Dependent Effect | inhibition (H9c2 [2]) Dose-Dependent Effect | inhibition (RAW264.7 [3]) Dose-Dependent Effect | inhibition (H9c2 [4]) Dose-Dependent Effect | inhibition (RAW264.7 [5]) | inhibition (H9c2 [6]) | inhibition (H9c2 [7]) | inhibition (RAW264.7 [8]) | inhibition (H9c2 [9]) | inhibition (H9c2 [10]) | inhibition (RAW264.7 [11]) | inhibition (H9c2 [12]) | Activity (RAW264.7 [13]) | Activity (RAW264.7 [14]) | Activity (H9c2 [15]) | Activity (H9c2 [16]) | Activity (RAW264.7 [17]) | Activity (RAW264.7 [18]) | Activity (H9c2 [19]) | Activity (Mus musculus [20]) | Activity (Mus musculus [21]) | Activity (Mus musculus [22]) | Activity (Mus musculus [23]) | Activity (Mus musculus [24]) | Activity (Mus musculus [25]) | Activity (Mus musculus [26]) | Activity (Mus musculus [27]) | Activity (Mus musculus [28]) | inhibition (Mus musculus [29]) | Activity (Mus musculus [30]) | Activity (Mus musculus [31]) | Activity (Mus musculus [32]) | Activity (Mus musculus [33])
